Results on 88 molecules are retold here after a melting point compilation (Tetko et al.; mined from patent text by program, amines drawn as free bases though some values may be those of a salt).

Each structure is given as a SMILES string.

What is called melting point is the temperature, or range, at which the solid turns liquid. `COc1cc(C(=O)O)cc2ccc3ccccc3c(=O)c12`: the melting point was 252 to 253 °C.

As for `CCc1cc(-c2nnc3c4ccccc4c(OCc4ncnn4C)nn23)no1`, the melting point was in the range of 240 to 242 °C. For `CCC(C)C1C(=O)NC(=S)N1C(C)=O` (stereo not drawn) the value was 132 to 133 °C; for `CCCOc1nn(-c2ccc(C(F)(F)F)cn2)cc1CCCOc1ccc(CCC(=O)O)c(OCC)c1`, 112 to 113 °C. Consider `COc1ccc(-c2nncn2-c2ccccc2)cc1`, for which the melting point was in the range of 139 to 140 °C. `O=C(NC[C@H](O)[C@@H](O)[C@H](O)C(=O)CO)OCc1ccccc1` yielded a melting point of 107 to 111 °C. For `O=C(C=Cc1cc(Br)c(O)c(Br)c1)N1CCc2c([nH]c3ccccc23)C1c1ccc2c(c1)OCO2` (stereo not drawn) the value was 148 to 150 °C. For `CC(C)(C)N(NC(=O)c1ccccc1)C(=O)C1CCCCC1` the value was 202 to 204 °C; for `CCc1c(Sc2cc(Cl)cc(Cl)c2)c(CO)nn1CCO`, 89 to 90 °C. With `O=S1(=O)N=C(NC2CCCC2)Nc2cc(F)ccc21`, the melting point lay within 295 to 298 °C. On to `Cc1cc(OC2CN(C(=O)c3nnc(-c4ccccc4)o3)C2)ccc1CN1CCC(C)(CO)CC1`, for which the melting point amounted to 167 °C. `O=[N+]([O-])c1ccc(-c2nc(-c3ccco3)no2)cc1` yielded a melting point of 168 to 170 °C. With `FC(F)(F)Oc1ccc(-c2ccc3c(ccn3Cc3ccccc3)c2)cc1`, the melting point was in the range of 62 to 63 °C. For `O=S(=O)(c1ccccc1)c1ccc(N2CCNCC2)cn1` the value was 126 to 127 °C; for `O=[N+]([O-])c1ccc(Sc2nccn2-c2ccccc2)cc1`, 123 to 125 °C; for `Cc1noc(NS(=O)(=O)c2ccc(NC(=O)NC3CCCCC3)cc2)c1C`, 190 to 195 °C. Under `CC(=O)Nc1nc2c(Oc3cc(-c4ccc(C(F)(F)F)cc4NC(=O)C4CCCCN4CC4CC4)ncn3)cccc2s1` (stereo not drawn) stands 212 to 214 °C; under `CCCCC(=O)Nc1nc2ccc(Cl)cc2nc1N`, 224 to 228 °C; under `COc1ccccc1-c1nc(N)c(C(N)=O)nc1-c1ccc(=O)n(C(C)C)c1`, 263 °C. For the molecule `CCCn1nc2c(N)nc3ccccc3c2c1CCNC(=O)NCC`, the melting point fell in the range of 206 to 207 °C.

Turning to `CC(=O)C(C)N1C(=O)N(c2ccc(N3CCN(c4ccc(O)cc4)CC3)cc2)C(=O)C1(C)C` (stereo not drawn), the melting point stood at 226 °C. Under `CSc1nc(=O)n(C)cc1F` stands 154 °C. `O=C(NCc1ccc(F)c(F)c1)c1ccnc(N2CCN(Cc3cccnc3)C2=O)c1` came in with a melting point of 178 to 180 °C. For `COc1cc(NC(C)=O)c(Cl)cc1C(=O)NN1CCN(Cc2ccccc2)CC1`, the melting point came to 185 °C. `COC(=O)C1(C)CN(C(=O)Nc2c(C)noc2C)N=C1c1ccc(Cl)cc1` (stereo not drawn) registered a melting point of 214 to 216 °C. The molecule `COc1ccc(CNn2c(=O)ccc3ccc(Cl)nc32)cc1Cl` registered a melting point of 151 to 154 °C.

The molecule `C=CCN(CC=C)c1ccc2[nH]c3cnc(-c4nc(CC)no4)nc3c2c1` came in with a melting point of 175 to 184 °C.

Regarding `CCCCCCCCCCCC[C@]1(O)C(=O)O[C@H](C(=O)OC)[C@@]1(O)C(=O)OC` (racemic), the melting point lay in the range of 74 to 76 °C. The molecule `CC1(C)Nc2ccccc2NC1=S` came in with a melting point of 140 to 142 °C. For the molecule `COc1ccc(Cn2ncn(-c3ccc(N4CCN([C@H](C)[C@](O)(Cn5cncn5)c5ccc(F)cc5F)CC4)cc3)c2=O)cc1`, the melting point lay within 178 to 179 °C. For `Cc1ccc(CC(CNC(=S)NC(C)c2ccc(NS(C)(=O)=O)c(F)c2)COC(=O)C(C)(C)C)cc1C` (stereo not drawn) the value was 73 °C. With `O=C(OC(Cn1ccnc1)c1ccc2ccccc2c1)c1ccccc1` (stereo not drawn), the melting point was 219 to 220 °C. In turn, `CCCCOc1ccc(C(C)N(O)C(N)=O)cc1` (stereo not drawn) showed a melting point of 137 to 138 °C. Regarding `COc1ccc2c(c1)OCCC(C(=O)N1CCN(C(=O)c3cc(OC)c(OC)c(OC)c3)CC1)=C2`, the melting point was in the range of 133 to 135 °C. For the molecule `CNc1cnn(-c2cccnc2)c1Br`, the melting point fell in the range of 77 to 79 °C. Under `CC(C)N(O)C(=O)Cc1ccc2c(c1)C(=O)c1ccccc1CO2` stands 144 to 145 °C; under `O=C(O)[C@@H](Cc1ccccc1)NS(=O)(=O)N1CCN(c2ccc(Cl)cc2)CC1`, 176 to 178 °C. For `Fc1ccc(-c2[nH]cc(CCCN3CCN(Cc4ccccc4)CC3)c2-c2ccncc2)cc1`, the melting point lay in the range of 153 to 154 °C. Under `O=C(NCc1ccccn1)Nc1cc(N2CC(COCc3ccccc3)OC2=O)ccn1` (stereo not drawn) stands 134 to 135 °C; under `CCCCCC(=O)OCc1nccc(O)n1`, 78 °C; under `CCOP(=O)(CC(Nc1cccnc1)c1cc(C)c(O)c(OC)c1)OCC` (stereo not drawn), 156 to 158 °C. `CCOCC(=NO)C(C)(C)NCC(Cn1ccnc1[N+](=O)[O-])ONC(C)(C)C(CCn1ccnc1[N+](=O)[O-])=NO` (stereo not drawn) returned a melting point of 105 to 107 °C.

For `CC(=O)OC1CCC2(C)C(CCC3=C4C(=O)CC(C(C)CCCC(C)(C)O)C4(C)CCC32)C1` (stereo not drawn), the melting point lay in the range of 151 to 152 °C. `CC(C)(C)c1ccc(Cn2cnc3c(-c4ccco4)ncnc32)cc1` gave a melting point of 185 to 187 °C. Under `CN(C)CCc1ccc(OCCCNc2nc(N)nn2C)cc1` stands 125 to 126 °C; under `CCN(c1nc(C)cc(C)n1)c1ccc(CC=NOC)cc1S(C)(=O)=O`, 151 to 154 °C. Under `CCCCc1ccc(-c2ccc(CCC3OCC(CCC)CO3)cc2)c(F)c1` (stereo not drawn) stands 36 °C. Under `COC(=O)c1ccc(C(F)(F)F)cc1N(S(C)(=O)=O)S(C)(=O)=O` stands 221 to 225 °C. The molecule `Cn1cnc(C(O)c2cc(Cl)cc3c2OC(C)(C)OC3)c1` (stereo not drawn) gave a melting point of 131 to 136 °C. Under `CCOC(=O)Cc1csc(-c2c(O)cccc2O)n1` stands 152 to 154 °C. Molecule `CCOC(=O)C1C(C)(O)CCC(O)C1(C)C` (stereo not drawn) registered a melting point of 92 to 94 °C. The molecule `Cc1c(OCCCCSCc2ccncc2)ccnc1CNc1cnc2ccccc2c1` returned a melting point of 128 to 129 °C.

`O=C(O)c1ccc(OCCCCCCc2ccc3cc(OCc4ccccc4)c(OCc4ccccc4)cc3c2)cc1` came in with a melting point of 153 to 155 °C.

`CNC(=O)c1cnn(-c2ccccn2)c1C#N` registered a melting point of 200 to 202 °C. In turn, `CC1(C)CCc2ccc(O)cc21` yielded a melting point of 84.5 to 86.5 °C. With `Clc1ccc(C#Cc2ccc(C#Cc3cc4ccccc4s3)s2)cc1`, the melting point is 189 to 191 °C. The molecule `CC1Cc2c(c3cccnc3n(-c3ccccc3)c2=O)O1` (stereo not drawn) showed a melting point of 223 to 224 °C.

For `N[C@H]1CCN(c2cc3c(cc2F)c(=O)c(C(=O)O)cn3-c2nc[nH]n2)C1`, the melting point fell in the range of 250 to 260 °C. On to `NS(=O)(=O)c1cc2cnc(CO)cc2o1`, for which the melting point fell in the range of 222 to 223 °C. As for `COc1ccc2c(c1O)C13CCN(CC4CC4)C(C2)C1(Cc1ccccc1)CCC(=O)C3` (stereo not drawn), the melting point lay within 122 to 124 °C.

`NS(=O)(=O)c1cc2cc(N(Cc3ccccc3)Cc3ccccc3)ccc2s1` had a melting point of 122 to 124 °C. Molecule `COC(=O)C=C1NCC(CO)OC1=O` (stereo not drawn) gave a melting point of 112 to 114 °C.

`O=C1Nc2ccccc2C12COc1c2ccc2c1OCCO2` (stereo not drawn) showed a melting point greater than 250 °C. Molecule `CNC(=S)n1nc(Cc2ccccc2)nc1N` showed a melting point of 173 to 175 °C. Turning to `CCOC(=O)c1cn(C)c2nc3cc(F)c(F)cc3cc2c1=O`, the melting point is 323 to 324 °C. For `O=C(O)Cn1c(=O)c(=O)[nH]c2ccc([N+](=O)[O-])cc21`, the melting point is 305 to 306 °C. With `O=C1CC[C@H]2CC3(C=C[C@@H]2C1)OCCO3` (relative stereo), the melting point lay in the range of 58 to 59 °C. On to `CN1CCN(c2cc3nc4c(cc3cc2F)c(=O)c(C#N)cn4C)CC1`, for which the melting point amounted to 335 °C. The molecule `COC(=O)C(O)C(O)C(O)C(O)C(=O)OC` (stereo not drawn) showed a melting point of 90.2 to 90.7 °C. Turning to `CC(=O)N1C(=O)N(N=Cc2cccnc2)Cc2cc(C(F)(C(F)(F)F)C(F)(F)F)ccc21`, the melting point was in the range of 160 to 162 °C.

Consider `CC(c1cc2ccccc2s1)N(O)C=O` (stereo not drawn), for which the melting point was in the range of 115 to 116 °C. With `Cc1nccc2[nH]c(=O)ccc12`, the melting point lay in the range of 235 to 237 °C. The molecule `COc1ccnc(CCc2nc3cc(-c4ccc(S(=O)(=O)N(C)C)cc4C)cnc3[nH]2)c1` yielded a melting point of 179 to 180 °C. On to `COc1ccc2c(c1)CCC([C@@H]1CC[C@H](O)[C@@]1(C)CCO)C2` (stereo partly drawn), for which the melting point lay within 151 to 153 °C. For `CCOC(=O)N1CCN(CCNc2ncnc3c2sc2nc(N4CCCC4)c4c(c23)CC(C)(C)OC4)CC1` the value was 97.8 to 99.1 °C; for `CC(C)(C)C(=O)Oc1cc2c(s1)CCN(C(C(=O)C1CC1)c1ccccc1F)C2` (stereo not drawn), 91 to 94 °C; for `C[C@H]1C(=O)NC(=O)N1CC(=O)Nc1c2c(nc3ccccc13)CCCC2`, 260 to 263 °C. The molecule `CN1C(=O)[C@H](NC(=O)CCc2ccc(Cl)cc2Cl)N=C(c2ccccc2N)c2cc(N)ccc21` returned a melting point of 188 to 189 °C.

Take `NC(=O)COc1ccc([N+](=O)[O-])cc1`: the melting point was in the range of 153 to 155 °C. As to `CCC(=Cc1cn(CC(=O)N(C)CCc2ccccc2)c2cccc(OCc3ccccc3)c12)C(=O)O`, the melting point is 170 to 174 °C. `CCn1cc(C(=O)NCc2ccc(Cl)cc2)c(=O)c2cc(C#CCOC(=O)c3cccc(CN4CCOCC4)c3)sc21`: the melting point lay within 147 to 150 °C. With `CCOC(=O)Cc1ccc(NC(=O)c2cc(Cl)ccc2OC)cc1`, the melting point came out at 104 °C. Consider `CNS(=O)(=O)c1ccc(Oc2ccc(Cl)cc2)cc1`, for which the melting point lay within 80 to 83 °C. Molecule `O=C(c1cccs1)c1cnn2c(-c3cccc(Br)c3)ccnc12` returned a melting point of 193 to 195 °C.

Consider `C=CCC1(CC=C)c2cccc(OC)c2C(=O)c2cccc(Cl)c21`, for which the melting point is 165 to 166 °C. `CC(O)(CCO)c1ccc(-c2ccc(F)cc2F)cc1` (stereo not drawn) returned a melting point of 82 to 84 °C.

Molecule `COc1ccc(CNC(N)=S)cc1OCc1ccccc1` returned a melting point of 179 to 181 °C.

Turning to `COC(=O)c1nc(C#N)ccc1OCc1ccccc1`, the melting point lay within 104 to 105 °C.
